Source: US20250352539A1, “COMBINATION THERAPY FOR TREATING CANCER” (AstraZeneca AB, priority 2022, published 2025)
“And” between values parts separate entries of the source, which are not always exact repeats. Equal values may be shown once.

Columns and labels:
Assay in all cases: 10-day Cell Titre Glo combination screen
Assay type in all cases: cell-based
SUM52PE = SUM52PE breast; monotherapy; read-out: mono AC50
Excerpt: (§1) The Highest Single Agent (HSA) model is used to determine a combination's synergy score (and is based simply on the intuition that if a combination's effect exceeds the effect level of each of its constituents, there must be some combination interaction). Mathematically, the HSA model describes simple superposition of the single agent curves:
(§2) where CX,Y are the concentrations of the X and Y compound, and IX and IY are inhibitions of the single agents at CX,Y. It is also useful to calculate a volume score (HSA Volume) between the data and the HSA surface to characterise the overall strength of combination effects. Empirically derived combination matrices are compared to their respective HSA additivity models constructed from experimentally collected single agent dose response curves. Summation of this excess additivity across the dose response matrix is referred to HSA Volume.
(§3) Potency shifting can also be scored using combination index (CI). For a chosen iso-effect level (ICut), CI is calculated as: […]
(§4) where (CX/ECX) for a particular data point is the ratio of the X compound's measured concentration to its effective concentration at the chosen effect level. The CI is a rough estimate of how much drug was needed in combination relative to the single agent doses required to achieve the chosen effect level. CI values in the range of 0.5-0.7 are typical for in vitro measurements of current clinical combinations. The CI error (σCI) is calculated using standard error propagation through the CI calculation based on the isobologram errors.
(§5) This combination screen was a 10-day assay using Cell Titre Glo as the readout for viability.
(§6) The assay was performed in 384 well plates, with 1 cell line and 4 drug-drug combinations per plate dosed in a 6×6 matrix. A day zero reading was measured to determine growth inhibition. GenedataScreener was used to input the raw values for every well, and the software was programmed to normalise the values to the day zero and DMSO control values.
(§7) The CellTiter-Glo® Luminescent Cell Viability Assay is a homogeneous method to determine the number of viable cells in culture based on quantitation of the ATP present, which signals the presence of metabolically active cells. It relies on the properties of a proprietary thermostable luciferase (Ultra-Glo™ Recombinant Luciferase), which generates a stable “glow-type” luminescent signal and improves performance across a wide range of assay conditions.
(§8) The following information was reported: Synergy scores (HSA); combination index values; AC50 (half-maximal activity concentration) monotherapy values.

A549 = details: Homo sapiens; A549 lung; monotherapy; read-out: mono AC50
Excerpt: as §1, §2, §3, §4, §5, §6, §7, §8

ZR-75-1 = details: Homo sapiens; ZR-75-1 breast; monotherapy; read-out: mono AC50
Excerpt: as §1, §2, §3, §4, §5, §6, §7, §8

MDA-MB-468 = details: Homo sapiens; MDA-MB-468 breast; monotherapy; read-out: mono AC50
Excerpt: as §1, §2, §3, §4, §5, §6, §7, §8

NCI-H1573 = details: Homo sapiens, NCI-H1573, 240 h, NCI-H1573 lung; monotherapy; read-out: mono AC50
Excerpt: as §1, §2, §3, §4, §5, §6, §7, §8

JIMT-1 = details: Homo sapiens; JIMT-1 breast; monotherapy; read-out: mono AC50
Excerpt: as §1, §2, §3, §4, §5, §6, §7, §8

NCI-H522 = details: Homo sapiens; NCI-H522 lung; monotherapy; read-out: mono AC50
Excerpt: as §1, §2, §3, §4, §5, §6, §7, §8

HOP62 = details: Homo sapiens, HOP-62; HOP62 lung; monotherapy; read-out: mono AC50
Excerpt: as §1, §2, §3, §4, §5, §6, §7, §8

HCC15 = HCC15 lung; monotherapy; read-out: mono AC50
Excerpt: as §1, §2, §3, §4, §5, §6, §7, §8

MCF7 = details: Homo sapiens; MCF7 breast; monotherapy; read-out: mono AC50
Excerpt: as §1, §2, §3, §4, §5, §6, §7, §8

SW1573 = details: Homo sapiens; SW1573 lung; monotherapy; read-out: mono AC50
Excerpt: as §1, §2, §3, §4, §5, §6, §7, §8

NCI-H2085 = NCI-H2085 lung; monotherapy; read-out: mono AC50
Excerpt: as §1, §2, §3, §4, §5, §6, §7, §8

HCC1187 = details: Homo sapiens; HCC1187 breast; monotherapy; read-out: mono AC50
Excerpt: as §1, §2, §3, §4, §5, §6, §7, §8

CAL-51 = details: Homo sapiens; CAL-51 breast; monotherapy; read-out: mono AC50
Excerpt: as §1, §2, §3, §4, §5, §6, §7, §8

MDA-MB-231 = details: Homo sapiens; MDA-MB-231 breast; monotherapy; read-out: mono AC50
Excerpt: as §1, §2, §3, §4, §5, §6, §7, §8

CAL-120 = details: Homo sapiens; CAL-120 breast; monotherapy; read-out: mono AC50
Excerpt: as §1, §2, §3, §4, §5, §6, §7, §8

BT-20 = details: Homo sapiens; BT-20 breast; monotherapy; read-out: mono AC50
Excerpt: as §1, §2, §3, §4, §5, §6, §7, §8

NCI-H1373 = details: Homo sapiens; NCI-H1373 lung; monotherapy; read-out: mono AC50
Excerpt: as §1, §2, §3, §4, §5, §6, §7, §8

MCF7 F100-16 = details: Homo sapiens; MCF7 F100-16 breast; monotherapy; read-out: mono AC50
Excerpt: as §1, §2, §3, §4, §5, §6, §7, §8

HCC1806 = details: Homo sapiens; HCC1806 breast; monotherapy; read-out: mono AC50
Excerpt: as §1, §2, §3, §4, §5, §6, §7, §8

DMS53 = details: Homo sapiens, DMS-53; DMS53 lung; monotherapy; read-out: mono AC50
Excerpt: as §1, §2, §3, §4, §5, §6, §7, §8

DU4475 = details: Homo sapiens, DU-4475; DU4475 breast; monotherapy; read-out: mono AC50
Excerpt: as §1, §2, §3, §4, §5, §6, §7, §8

NCI-H2291 = details: Homo sapiens; NCI-H2291 lung; monotherapy; read-out: mono AC50
Excerpt: as §1, §2, §3, §4, §5, §6, §7, §8

BT474C1 = BT474C1 breast; monotherapy; read-out: mono AC50
Excerpt: as §1, §2, §3, §4, §5, §6, §7, §8

PC-9 = details: Homo sapiens; PC-9 lung; monotherapy; read-out: mono AC50
Excerpt: as §1, §2, §3, §4, §5, §6, §7, §8

Compound C[C@@H]1COCCN1c1cc(C2([S@](C)(=N)=O)CC2)nc(-c2ccnc3[nH]ccc23)n1 [AZD6738, 4-{4-[(3R)-3-Methylmorpholin-4-yl]-6-[1-((R)—S-methylsulfonimidoyl)cyclopropyl]pyrimidin-2-yl}-1H-pyrrolo[2,3-b]-pyridine] has an AC50 (SUM52PE) of 6510 nM, an AC50 (A549) of 3110 nM and an AC50 (ZR-75-1) of 6030 nM. For the same compound, the AC50 (MDA-MB-468) was 2310 nM, the AC50 (NCI-H1573) was 1390 nM and the AC50 (JIMT-1) was 869 nM. It also gave an AC50 (NCI-H522) of 5650 nM, an AC50 (HOP62) of 590 nM and an AC50 (HCC15) of 7020 nM. For the same compound, the AC50 (MCF7) was 1120 nM, the AC50 (SW1573) was 3650 nM and the AC50 (NCI-H2085) was 4750 nM and 5490 nM. The AC50 (HCC1187) was 531 nM, the AC50 (CAL-51) was 1360 nM and the AC50 (MDA-MB-231) was 866 nM. The AC50 (CAL-120) was 1180 nM, the AC50 (BT-20) was 723 nM and the AC50 (NCI-H1373) was 1240 nM. The AC50 (MCF7 F100-16) was 1730 nM, the AC50 (HCC1806) was 412 nM and the AC50 (DMS53) was 2180 nM. For the same compound, the AC50 (DU4475) was 3250 nM, the AC50 (NCI-H2291) was 1120 nM and the AC50 (BT474C1) was 3830 nM. The AC50 (PC-9) was 510 nM.
